Laboratory results reported in patent US11780842B2, “TYK2 pseudokinase ligands” (Ventyx Biosciences, Inc., priority 2019, dated 2023).
pIC50: −log10 of the molar value.

test system: IFN-a/Jak1Tyk2; assay: Co-stimulation assay in lysed whole blood: IFNa (JAK1/TYK2) stimulated STAT1 phosphorylation; type: cell-based; conditions: lysed human whole blood, IFNa 100 ng/mL (co-stimulated with GM-CSF 10 ng/mL), pSTAT1 by flow cytometry
Experimental: Example 4: Co-Stimulation Assay in Lysed Whole Blood; JAK2: GM-CSF Stimulated STATS Phosphorylation and JAK1/TYK2 Stimulated STAT1 Phosphorylation Assay
Human Blood Lysis Using Abcam's RBC Lysis Buffer
Dilute RBC lysis buffer to 1× in distilled water. Add 2 mL blood to 38 mL of 1×RBC-lysis buffer. Incubate for 15 mins at RT, in dark. Spin at 300 g, 5 mins, to collect the pellet. Re-lyse if necessary. Re-suspend pellet in 5 mL of cRPMI.
Compound and Cytokine Treatment
Aliquot 80 μL of lysed human blood in to wells of 96 deep-well plate. Add 10 μl of (10× conc.) of different concentrations of compounds to all wells except controls (unstained and unstimulated) and mix it with the help of 100 uL multichannel. Add 10 uL of RPMI media in controls. For dilution of compounds and dilution range please refer Appendix. Incubate on water bath or CO2 incubator for 1 hour at 37° C. Add 10 μL of (10× conc.) of cytokine mix (GM-CSF and IFNa) (final conc. 10 ng/mL of GM-CSF and 100 ng/mL of IFNa) to each well except unstimulated and unstained controls and incubate further for 20 minutes on water bath at 37° C.
Add 900 μL of prewarmed 1× Fix/Lyse solution (Appendix) and mix it properly using 1000 μl multichannel, incubate further on water bath at 37° C. for 10 minutes (which includes time of addition). Centrifuge at 800× g for 5 minutes at 40° C.; remove 900 uL of supernatant and add 900 μL of 1×PBS. Centrifuge at 800× g for 5 minutes at 40° C., remove 900 μL of supernatant. Wash one more time with 900 μL of PBS (optional) and resuspend pellets in 100 uL of PBS.
Disrupt the pellet by gentle tapping and resuspend in 1000 μL of BD Phosflow Perm Buffer III and incubate plate on ice for 30 minutes. Centrifuge plate at 800× g for 5 minutes at 40° C. Wash two more times with 1000 μL of BD Pharmingen Stain Buffer.
Disrupt the pellet by gentle tapping. Resuspend pellets in 100 uL of Stain Buffer and add 5 μL of pSTAT5_AF488 Ab and 5 uL of pSTAT1_PE in all wells except unstained control and mix properly using 200 μl multichannel, incubate overnight at […]. Add 900 μL of wash buffer and centrifuge at 1800 rpm for 3 minutes at […]. Wash one more time with 1000 μL of BD Pharmingen Stain Buffer. Finally resuspend the pellet in 300 uL of BD Pharmingen Stain Buffer. Transfer the cells to 96-well v-bottom plate and acquire the cells in Beckman Coulter CytExpert. Acquiring cells in Flow Cytometer: Keep the threshold value to 250 and cell concentration should not exceed 100-500 cells/μL. Acquire at least 5,000-10,000 cells.
RPMI 1640 Complete Medium: RPMI 1640 media+10% FBS.
Cytokine dilution: 1) GM-CSF Stock at 100 ug/mL. Prepare an intermediate dilution of 1 ug/mL by adding 2 uL of stock into 198 uL of cRPMI. Further dilute to 100 ng/mL by adding 100 uL of the intermediate stock to 900 uL of cRPMI. 2) IFNa Stock at 200 ug/mL. Dilute IFNa stock 1:200 by adding 5 uL of stock into the 1000 uL of 100 ng/mL GM-CSF working stock as above to give a combined working stock of 1000 ng/mL of IFNa and 100 ng/mL GM-CSF (lox). Keep it on ice until used.
Lyse/Fix buffer preparation: Dilute 5× Lyse/Fix buffer to 1× using MQ water and keep at 37° C. until used.
BD Phosflow perm buffer III: Keep on ice/fridge.

Row | pIC50 | SMILES
1 | 6.00 to 7.00 | CNc1cc2nc3c(cnn13)C(=O)NCCOc1cc(Cl)cc(c1)N2 [Compound 33, (1^3E,1^4E)-3^5-chloro-1^7-(methylamino)-4-oxa-2,7-diaza-1(5,3)-pyrazolo[1,5-a]pyrimidina-3(1,3)-benzenacyclooctaphan-8-one]
2 | 6.00 to 7.00 | CNc1cc2nc3c(cnn13)C(=O)NCCCCOc1cccc(c1)N2 [Compound 35, (1^3E,1^4E)-1^7-(methylamino)-4-oxa-2,9-diaza-1(5,3)-pyrazolo[1,5-a]pyrimidina-3(1,3)-benzenacyclodecaphan-10-one]
3 | 6.00 to 7.00 | [2H]C([2H])([2H])Nc1cc2nc3c(cnn13)C(=O)NCCCc1cccc(c1)N2 [Compound 24, (1^3E,1^4E)-1^7-((methyl-d3)amino)-2,7-diaza-1(5,3)-pyrazolo[1,5-a]pyrimidina-3(1,3)-benzenacyclooctaphan-8-one]
4 | 5.00 to 6.00 | CNc1cc2nc3c(cnn13)C(=O)NCCC(=O)c1cccc(c1)N2 [Compound 44, (1^3E,1^4E)-1^7-(methylamino)-2,7-diaza-1(5,3)-pyrazolo[1,5-a]pyrimidina-3(1,3)-benzenacyclooctaphane-4,8-dione]
5 | 6.00 to 7.00 | CNc1cc2nc3c(cnn13)C(=O)NCCOc1cc(ccc1OC)N2 [Compound 31, (1^3E,1^4E)-3^4-methoxy-1^7-(methylamino)-4-oxa-2,7-diaza-1(5,3)-pyrazolo[1,5-a]pyrimidina-3(1,3)-benzenacyclooctaphan-8-one]
6 | 6.00 to 7.00 | CNc1cc2nc3c(cnn13)C(=O)NC(C)COc1cccc(c1)N2 (centres unmarked) [Compound 25, (1^3E,1^4E)-6-methyl-1^7-(methylamino)-4-oxa-2,7-diaza-1(5,3)-pyrazolo[1,5-a]pyrimidina-3(1,3)-benzenacyclooctaphan-8-one]
7 | 5.00 to 6.00 | CNc1cc2nc3c(cnn13)C(=O)NCCc1cccc(n1)N2 [Compound 42, (1^3E,1^4E)-1^7-(methylamino)-2,6-diaza-1(5,3)-pyrazolo[1,5-a]pyrimidina-3(2,6)-pyridinacycloheptaphan-7-one]
8 | 6.00 to 7.00 | CNc1cc2nc3c(cnn13)C(=O)NC(C)COc1ccccc1N2 (centres unmarked) [Compound 36, (1^3E,1^4E)-6-methyl-1^7-(methylamino)-4-oxa-2,7-diaza-1(5,3)-pyrazolo[1,5-a]pyrimidina-3(1,2)-benzenacyclooctaphan-8-one]
9 | ≥ 6.30 | [2H]C1([2H])NC(=O)c2cnn3c(NC)cc(nc23)Nc2cccc(c2)OC1([2H])[2H] [Compound 15, (1^3E,1^4E)-1^7-(methylamino)-4-oxa-2,7-diaza-1(5,3)-pyrazolo[1,5-a]pyrimidina-3(1,3)-benzenacyclooctaphn-8-one-5,5,6,6-d4]
10 | 6.00 to 7.00 | CNc1cc2nc3c(cnn13)C(=O)NCCOc1cc(ccc1Cl)N2 [Compound 23, (1^3E,1^4E)-3^4-chloro-1^7-(methylamino)-4-oxa-2,7-diaza-1(5,3)-pyrazolo[1,5-a]pyrimidina-3(1,3)-benzenacyclooctaphan-8-one]
11 | 5.00 to 6.00 | CNc1cc2nc3c(cnn13)C(=O)NCCCc1cc(O)cc(c1)N2 [Compound 38, (1^3E,1^4E)-3^5-hydroxy-1^7-(methylamino)-2,7-diaza-1(5,3)-pyrazolo[1,5-a]pyrimidina-3(1,3)-benzenacyclooctaphan-8-one]
12 | 6.00 to 7.00 | CNc1cc2nc3c(cnn13)C(=O)NCCOc1cc(c(Cl)cc1Cl)N2 [Compound 27, (1^3E,1^4E)-3^4,3^6-dichloro-1^7-(methylamino)-4-oxa-2,7-diaza-1(5,3)-pyrazolo[1,5-a]pyrimidina-3(1,3)-benzenacyclooctaphan-8-one]
13 | 6.00 to 7.00 | CNc1cc2nc3c(cnn13)C(=O)NCCOc1cc(F)ccc1N2 [Compound 34, (1^3E,1^4E)-3^4-fluoro-1^7-(methylamino)-4-oxa-2,7-diaza-1(5,3)-pyrazolo[1,5-a]pyrimidina-3(1,2)-benzenacyclooctaphan-8-one]
14 | 5.00 to 6.00 | CNc1cc2nc3c(cnn13)C(=O)NCCOc1cc(c(F)cc1C)N2 [Compound 39, (1^3E,1^4E)-3^6-fluoro-34-methyl-1^7-(methylamino)-4-oxa-2,7-diaza-1(5,3)-pyrazolo[1,5-a]pyrimidina-3(1,3)-benzenacyclooctaphan-8-one]
15 | 5.00 to 6.00 | CNc1cc2nc3c(cnn13)C(=O)NCCOc1cncc(c1)N2 [Compound 41, (1^3E,1^4E)-1^7-(methylamino)-4-oxa-2,7-diaza-1(5,3)-pyrazolo[1,5-a]pyrimidina-3(3,5)-pyridinacyclooctaphan-8-one]
16 | 5.00 to 6.00 | CNc1cc2nc3c(cnn13)C(=O)NCCCOc1ccc(F)cc1N2 [Compound 46, (1^3E,1^4E)-3^5-fluoro-1^7-(methylamino)-4-oxa-2,8-diaza-1(5,3)-pyrazolo[1,5-a]pyrimidina-3(1,2)-benzenacyclononaphan-9-one]
17 | 6.00 to 7.00 | CNc1cc2nc3c(cnn13)C(=O)NCCOc1cc(F)cc(c1)N2 [Compound 19, (1^3E,1^4E)-3^5-fluoro-1^7-(methylamino)-4-oxa-2,7-diaza-1(5,3)-pyrazolo[1,5-a]pyrimidina-3(1,3)-benzenacyclooctaphan-8-one]
18 | 6.00 to 7.00 | CNc1cc2nc3c(cnn13)C(=O)NCCOc1cc(c(F)cc1F)N2 [Compound 29, (1^5E,1^4E)-3^4,3^6-difluoro-1^7-(methylamino)-4-oxa-2,7-diaza-1(5,3)-pyrazolo[1,5-a]pyrimidina-3(1,3)-benzenacyclooctaphan-8-one]
19 | 5.00 to 6.00 | CNc1cc2nc3c(cnn13)C(=O)NCC(C)Oc1cccc(c1)N2 (centres unmarked) [Compound 37, (1^3E,1^4E)-5-methyl-1^7-(methylamino)-4-oxa-2,7-diaza-1(5,3)-pyrazolo[1,5-a]pyrimidina-3(1,3)-benzenacyclooctaphan-8-one]
20 | 5.00 to 6.00 | CNc1cc2nc3c(cnn13)C(=O)NCCCn1cc(cn1)N2 [Compound 45, (1^3E,1^4E,3^4E)-1^7-(methylamino)-31H-2,7-diaza-1(5,3)-pyrazolo[1,5-a]pyrimidina-3(4,1)-pyrazolacyclooctaphan-8-one]
21 | ≥ 6.30 | CNc1cc2nc3c(cnn13)C(=O)NCC(C)(C)c1cccc(c1)N2 [Compound 13, (1^3E,1^4E)-4,4-dimethyl-1^7-(methylamino)-2,6-diaza-1(5,3)-pyrazolo[1,5-a]pyrimidina-3(1,3)-benzenacycloheptaphan-7-one]
22 | 5.00 to 6.00 | CNc1cc2nc3c(cnn13)C(=O)NCCCc1cc(cc(OC)c1)N2 [Compound 40, (1^3E,1^4E)-3^5-methoxy-1^7-(methylamino)-2,7-diaza-1(5,3)-pyrazolo[1,5-a]pyrimidina-3(1,3)-benzenacyclooctaphan-8-one]
23 | 6.00 to 7.00 | CNc1cc2nc3c(cnn13)C(=O)NCC(C)Oc1ccccc1N2 (centres unmarked) [Compound 30, (1^3E,1^4E)-5-methyl-1^7-(methylamino)-4-oxa-2,7-diaza-1(5,3)-pyrazolo[1,5-a]pyrimidina-3(1,2)-benzenacyclooctaphan-8-one]
24 | 5.00 to 6.00 | CNc1cc2nc3c(cnn13)C(=O)NCCCc1csc(n1)N2 [Compound 43, (1^2Z,3^3E,3^4E)-3^7-(methylamino)-2,5-diaza-1(2,4)-thiazola-3(5,3)-pyrazolo[1,5-a]pyrimidinacyclooctaphan-4-one]
25 | 6.00 to 7.00 | CNc1cc2nc3c(cnn13)C(=O)NCCCc1cccc(c1)N2 [Compound 18, (1^3E,1^4E)-1^7-(methylamino)-2,7-diaza-1(5,3)-pyrazolo[1,5-a]pyrimidina-3(1,3)-benzenacyclooctaphan-8-one]
26 | 6.00 to 7.00 | CNc1cc2nc3c(cnn13)C(=O)NCCOc1cc(cc(F)c1F)N2 [Compound 28, (1^3E,1^4E)-3^4,3^5-difluoro-1^7-(methylamino)-4-oxa-2,7-diaza-1(5,3)-pyrazolo[1,5-a]pyrimidina-3(1,3)-benzenacyclooctaphan-8-one]
